Consider two molecules from US12577247B2 (BUGWORKS RESEARCH, INC., priority 2021, dated 2026).

Series [1] in a line: Pharmacokinetic study in dogs. It counts as in vivo, male Beagle dogs. To be noted: for half-life / Vd / clearance / bioavailability / Cmax / Tmax: male, Beagle, plasma; for half-life: dog; for Vd: read-out: Vss; for Cmax / Tmax: po, p.o; for Cmax: read-out: Cmax (head Co*/); for Tmax: read-out: Tmax (head Tma). On the procedure:
Intravenous (i.v) and Oral formulations for pharmacokinetic (PK) studies was formulated in different vehicles and excipients to achieve the desirable solubility for intravenous and Oral routes of administration.
Appropriate amount of the test compound was weighed and dissolved in required volume of the vehicles, followed by vertexing for a few seconds to dissolve the compound. Then the solution (or) suspension was sonicated at room temperature for 5 minutes to obtain a visually clear solution and or homogenous suspension. All the formulations were prepared freshly at room temperature before dosing.
The dog PK study was carried out in male Beagle dogs of minimum 10 Kg body weight to estimate the plasma clearance, volume of distribution and terminal half-life, area under curve (AUC) and peak plasma concentration (Cmax), time of peak plasma concentration (Tmax) and absolute bioavailability (% F) following intravenous and oral routes of administration.
Briefly, Example 13 and Example 39 was administered to a group of 3 non-naïve male dogs. The first set of 3 animals received an intravenous administration and following a washout period of 7 days, received an oral administration of Example 13. Following a further 7-day washout the animals will then repeat the intravenous and oral dosing regimen with an administration of Example 39. Blood samples (1 mL) was collected from the jugular vein by venepuncture into tubes containing K2EDTA anticoagulant at the following sampling times: • IV: Predose, 0.083 (5 min), 0.25, 0.5, 1, 2, 4, 8 and 24 hrs post-dose. • PO: Predose, 0.25, 0.5, 1, 2, 4, 8 and 24 hrs post-dose.
Immediately following collection blood samples was inverted to ensure mixing with anticoagulant and placed on wet ice. As soon as practically possible samples were centrifuged (3000 rpm, 10 min, at 4° C.) and the resultant plasma decanted into appropriately labelled polypropylene tubes in 96-well plate format and stored in a freezer set to maintain a temperature of ≤−65° C., until analysis.
Plasma samples were analysed for a fit-for purpose LC-MS/MS method with a lower limit of quantification. The pharmacokinetic parameters were calculated using the non-compartmental analysis tool of validated Phoenix® WinNonlin® software (Certara, USA version 8.4) with linear up and log down method for estimating AUC.
All animals in intravenous (IV bolus) group were under fed state and animals in oral groups were fasted overnight (min 12 hr) before dose administration and food was provided 4 h post dose administration. All animals were received water ad libitum during the study period. The mean (±SD) pharmacokinetic parameters of Example 13, Example 122b & Example 39 following IV bolus and Oral dose administration in Mice/Rat and Dog is provided in Table-9.

The next series concerns the target T1, A2B receptor (Homo sapiens, UniProt P29275).
T1 sequence (P29275 1-332): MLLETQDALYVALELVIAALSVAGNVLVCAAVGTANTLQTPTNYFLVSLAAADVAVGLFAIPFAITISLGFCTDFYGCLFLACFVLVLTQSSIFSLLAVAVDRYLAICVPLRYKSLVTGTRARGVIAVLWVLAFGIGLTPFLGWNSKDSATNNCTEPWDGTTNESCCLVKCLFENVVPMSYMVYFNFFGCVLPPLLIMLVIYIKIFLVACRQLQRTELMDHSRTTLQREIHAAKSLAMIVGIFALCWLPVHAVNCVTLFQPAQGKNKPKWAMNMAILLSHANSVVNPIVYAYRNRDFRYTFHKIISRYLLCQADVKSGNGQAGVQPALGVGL
Kind of series: A2bR antagonism IC50, cAMP TR-FRET (Lance Ultra) in HEK-293 cells, NECA as agonist. In kind it is cell-based. Details: host or cells: HEK-293. To be noted: HEK-293 cells expressing A2B receptor; agonist NECA 30 nM (EC90); inhibition of cAMP. Background: TR-FRET usually uses a lanthanide donor and a delayed reading to cut background.

Series [2] is described as follows: Pharmacokinetic study in mice. In kind it is in vivo, CD1 mice.
A further series has as its system Granzyme B. The experiment in a line: Biomarker (Granzyme-B) FACS analysis in tumour samples from the efficacy study. To be noted: 30 mg/kg TID, Day 22, vs vehicle and anti-PD1 antibody groups. In kind it is in vivo, Balb/c mice. Here is the method: On Day 22, the animals from the efficacy study above were euthanized by overdose of gaseous anaesthesia and tumor samples were collected and their weights were recorded before evaluating for Granzyme-B by FACs analysis.
Approximately 100 mg of tissue samples were homogenized, and the single cell suspensions were fixed and permeabilized using Miltenyi Biotec and BD kit-based reagents before staining with anti-Granzyme-B antibodies. Cells were subjected to FACS analysis while using isotype controls to ensure the specific binding of antibody and unstained cells as a negative control. The result obtained were analyzed using Flow Jo software and represented in FIG. 2.
On the technique in general: In flow cytometry, cells or beads pass a laser one at a time.

Where [3] appears, read: iv, 3 mg/kg, Dog, IV bolus, Table 6, read-out: T1/2 (IV bolus) (converted).
Setting [4] is: iv, 3 mg/kg, Dog, i.v, 3 mg/kg, read-out: t1/2 (converted).
[5] abbreviates: oral, 10 mg/kg, Dog, Table 6, read-out: % F.
The mark [6] stands for this setting: 30 mg/kg, line stands under Dog.
[7] abbreviates: Dog, oral 10 mg/kg vs IV bolus 3 mg/kg, read-out: % F (bioavailability).

Like-named read-outs stand apart in the source and are kept apart here.

As for `CCc1c(C)nn2c(N)c(C#N)c(NCCc3ccn(C4(CO)CC4)n3)nc12` [Example 39, 7-amino-3-ethyl-5-((2-(1-(1-(hydroxymethyl)cyclopropyl)-1H-pyrazol-3-yl)ethyl)amino)-2-methylpyrazolo[1,5-a] pyrimidine-6-carbonitrile], the “Total systemic clearance relative to hepatic clearance” value in series [1] (Dog) came out at 1.7 ×. Also, in series [1] (Dog), the “Volume of distribution relative to total body water (TBW)” value is 3.3 × TBW. Moreover, the “Total CLsystemic in plasma” value in series [1] (Dog, Table 6) is recorded as 52 mL/min/kg. Further, the “Co (head Co*/)” value in series [1] (Dog, i.v, 3 mg/kg) stood at 1352 ng/m. The half-life in series [1] (setting [3]) was 27 min; in series [1] (setting [4]), 24 min. Moreover, the Vd in series [1] (intravenous, Dog, Table 6) came out at 2 L/kg; in series [1] (iv, Dog, i.v, 3 mg/kg), 2 L/kg. Besides, in series [1] (iv, Dog, i.v, 3 mg/kg), the clearance (in general, a measure of how efficiently the substance is removed, as volume per time) was 52 ± 8.7 mL/min/kg. In addition, the bioavailability in series [1] (setting [5]) and in series [1] (setting [7]) was 25% in each case. Further, the Cmax was 618 ng/mL in series [1] (Dog, 10 mg/kg) and 201 ng/mL in series [1] (setting [6]). In addition, the Tmax (usually the time at which the peak concentration occurs) was 30 min in series [1] (Dog, 10 mg/kg) and 30 min in series [1] (setting [6]). Moreover, at A2B receptor, the IC50 (as a rule, the point on the concentration scale where inhibition reaches its midpoint) is 0.94 nM.

Take `Cc1cccc(CCNc2nc3c(C)c(C)nn3c(N)c2C#N)n1` [Example 13, 7-amino-5-((2-(6-methylpyridin-2-yl)ethyl)amino)-2,3-dimethylpyrazolo[1,5-a]pyrimidine-6-carbonitrile]: the “Exposure after subcutaneous (SC) dose relative to oral route” value in series [2] is 32 ×. For the same molecule, the Cmax turned out to be 1350 ng/mL in series [2] (CD1, mouse, plasma, sc, 10 mg/kg, s.c, 10 mg/kg, read-out: Cmax (head Co*/)) and 839 ng/mL in series [1] (Dog, 10 mg/kg). The Tmax in series [2] (CD1, mouse, plasma, sc, 10 mg/kg, s.c, 10 mg/kg, read-out: Tmax (head Tma)) amounted to 30 min; in series [1] (Dog, 10 mg/kg), 30 min. In series [1] (Dog), the “Total systemic clearance relative to hepatic clearance” value is “equivalent to that of hepatic clearance”. The “Volume of distribution relative to total body water (TBW)” value in series [1] (Dog) is recorded as 3 × TBW. For the same molecule, the “Total CLsystemic in plasma” value in series [1] (Dog, Table 6) stood at 33 mL/min/kg. Also, the “Co (head Co*/)” value in series [1] (Dog, i.v, 3 mg/kg) is recorded as 2899 ng/m. Besides, the values for the half-life in series [1] (setting [3]) and in series [1] (setting [4]) were 46.2 min and 42 min, respectively. The Vd stood at 1.8 L/kg in series [1] (intravenous, Dog, Table 6) and 1.75 L/kg in series [1] (iv, Dog, i.v, 3 mg/kg). Further, the clearance in series [1] (iv, Dog, i.v, 3 mg/kg) was 33 ± 3.6 mL/min/kg. Besides, the bioavailability in series [1] (setting [5]) and in series [1] (setting [7]) was 25% in each case. In addition, in the series with Granzyme B, the “Tumor Granzyme B expression” value was “significant increase”. The molecule further displayed an IC50 at A2B receptor of 3.4 nM.
